Source: patent US20220259235A1, “EGFR Inhibitor, Composition, and Preparation Method Therefor” (BETTA PHARMACEUTICALS CO., LTD, priority 2019, published 2022)

What was measured:
[1] = tested on: A431 EGFR wild-type cell line; test: A431 EGFR wild-type cell proliferation assay (CellTiter Glo, 72 h); format: cell-based; details: Homo sapiens, A-431, CTG, read-out: A431 EGFR WT IC50
In short: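 Cells seeded at 2000/well and exposed 72 h to compound at 1000 to 0.2 nM (0.1% DMSO). Viability read by CellTiter-Glo luminescence; IC50 from four-parameter nonlinear regression of signal vs. log concentration.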

[2] = Liver microsomal clearance test, human; format: in vitro ADME; details: Human liver microsomes, 0.5 mg/mL, NADPH
Protocol: (§1) Test 3 Liver Microsomal Clearance Test
(§2) 1. Prepare 0.5 mg/mL liver microsome diluent containing K-butter and MgCl2:
(§3) 2.1 Take 356 μL of the liver microsome diluent prepared above and add it to the preset wells of the incubation plate, the number of multiple wells n=1, mark it as the incubation plate.
(§4) 2.2 Take 4 μL of the positive control compound Verapamil (50 μM) and the working solution of the test compound (200 μM) into the above incubation plate containing 356 μL of liver microsome diluent, and mix well (The dilution solvent from the stock solution to the working solution is a mixed solvent of acetonitrile: methanol: water=1:1:2, and the final concentration of DMSO is ≤0.5%),
(§5) 2.3 Place the incubation plate in a 37° C. thermostatic oscillator (at shaking speed of 100 rpm) for pre-incubation with 10 min.
(§6) 2.4 Add 40 μL of 10 mM NADPH (add 40 μL of K-buffer to the wells without NADPH) to each reaction well to start the reaction and start timing.
(§7) 3. Sample collection and treatment:
(§8) 3.1 After adding NADPH to start the reaction, immediately take out 50 μL of the sample and add it to the precipitation plate pre-added with 400 μL of stop solution, and shake on an oscillator at 600 rpm for 5 min at room temperature as a 0 min sample.
(§9) 3.2 At the predetermined time points of 5 min, 15 min and 45 min, take out 50 μL of sample from the incubation plate and add it to the precipitation plate. The subsequent steps were the same as the treatment of 0 min sample. 3.3 After balancing, centrifuge above precipitation plate at 3200 rpm for 10 min at 4° C.
(§10) 3.4 Take 50 μL of the supernatant after centrifugation and add it to pre-added 20% acetonitrile water at appropriate proportion, shake on an oscillator at 600 rpm for 2 min at room temperature, mix well, and put it into the LC-MS/MS sampler for sample injection.
(§11) Analysis of Experimental Data
1. […]

[3] = Liver microsomal clearance test, monkey; format: in vitro ADME; details: Monkey liver microsomes, 0.5 mg/mL, NADPH
Protocol: as §1, §2, §3, §4, §5, §6, §7, §8, §9, §10, §11
1. […]

[4] = Liver microsomal clearance test, dog; format: in vitro ADME; details: Dog liver microsomes, 0.5 mg/mL, NADPH
Protocol: as §1, §2, §3, §4, §5, §6, §7, §8, §9, §10, §11
1. […]

hERG protein = biological target: T1, hERG protein (Homo sapiens, UniProt Q12809); test: hERG IC50 test (tracer/membranes fluorescence polarization); format: binding; details: hERG membranes and tracer, read-out: IC50 results of hERG protein to compound
T1 construct: purchased
Protocol: 1. Thaw hERG kits (Tracer, E-4031 and Membranes) at room temperature;
2. Add 10 μL of positive compound E-4031 and 10 μL of test compound (10 mM) to 384 well plate (Corning, Art. No. 3658);
3. E-4031 is sequentially 5-fold diluted by pure water (10 concentration points in total), and the test compound is sequentially 5-fold diluted by DMSO (10 concentration points in total).
4. Take 1 μL of all gradient concentrations and add them in parallel to the wells containing 24 μL Assay buffer, and dilute 25 times (take 3 μL of the maximum concentration of E-4031 and add it to 72 μL Assay buffer).
5. Add 10 μL Membranes to another black 384-well plate (Coming, Art.4511).
6. Take 5 μL of 25-fold diluted working solution of positive and test compounds, and add it to above-mentioned plate with 10 μL Membranes, 2 copies at each concentration.
7. Negative control: Add 5 μL Assay buffer to the well with 10 μL Membranes, 8 copies in parallel;
8. Positive control: Add 5 μL E-4031 (120 μM) to the well with 10 μL Membranes, 8 copies in parallel;
9. […]
10. Before measuring the fluorescence polarization, cover the analysis plate to protect the reagents from light and evaporation, and incubate at room temperature (20-25° C.) for 2 hours.
11. Read fluorescence polarization in PerkinElmer EnVision® Multilabel after incubation; […]

[5] = Liver microsomal clearance test, mice; format: in vitro ADME; details: Mice liver microsomes, 0.5 mg/mL, NADPH
Protocol: as §1, §2, §3, §4, §5, §6, §7, §8, §9, §10, §11
1. […]

T1 sequence (Q12809 whole entry): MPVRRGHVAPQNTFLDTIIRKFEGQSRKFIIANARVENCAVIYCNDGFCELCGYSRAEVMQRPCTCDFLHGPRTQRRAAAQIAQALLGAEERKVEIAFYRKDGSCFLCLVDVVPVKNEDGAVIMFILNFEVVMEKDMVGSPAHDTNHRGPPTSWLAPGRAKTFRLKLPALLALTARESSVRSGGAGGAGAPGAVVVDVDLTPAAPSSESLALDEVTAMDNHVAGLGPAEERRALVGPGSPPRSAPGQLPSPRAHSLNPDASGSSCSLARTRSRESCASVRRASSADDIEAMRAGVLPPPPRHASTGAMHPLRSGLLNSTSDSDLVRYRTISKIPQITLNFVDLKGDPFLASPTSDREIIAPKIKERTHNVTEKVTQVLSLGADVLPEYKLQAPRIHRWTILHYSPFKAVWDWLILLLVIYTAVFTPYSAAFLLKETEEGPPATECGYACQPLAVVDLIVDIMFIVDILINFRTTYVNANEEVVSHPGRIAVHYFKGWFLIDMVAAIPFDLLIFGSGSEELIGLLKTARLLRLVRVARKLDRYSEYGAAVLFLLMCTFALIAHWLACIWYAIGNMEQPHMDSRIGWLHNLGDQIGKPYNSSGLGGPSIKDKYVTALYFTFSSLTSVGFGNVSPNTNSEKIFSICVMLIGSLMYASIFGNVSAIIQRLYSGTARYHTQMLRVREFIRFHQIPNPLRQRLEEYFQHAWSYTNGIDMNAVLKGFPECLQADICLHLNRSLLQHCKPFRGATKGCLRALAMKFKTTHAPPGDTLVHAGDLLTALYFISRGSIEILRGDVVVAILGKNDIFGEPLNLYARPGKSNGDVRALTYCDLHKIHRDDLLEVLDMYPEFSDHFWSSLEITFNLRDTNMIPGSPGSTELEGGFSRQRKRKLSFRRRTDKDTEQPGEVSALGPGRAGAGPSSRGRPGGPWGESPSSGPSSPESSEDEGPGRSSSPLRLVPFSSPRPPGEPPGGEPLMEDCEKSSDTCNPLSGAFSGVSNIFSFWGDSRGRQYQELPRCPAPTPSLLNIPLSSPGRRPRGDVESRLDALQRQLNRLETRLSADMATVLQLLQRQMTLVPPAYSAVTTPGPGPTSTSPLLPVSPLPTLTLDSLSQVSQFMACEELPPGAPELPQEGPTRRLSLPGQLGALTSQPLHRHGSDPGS

- IC50 [1]: 112 nM
- Instrinsic clearance of liver microsomal protein, CLint [2]: 2.4 μL/min/mg proteins
- Instrinsic clearance of liver microsomal protein, CLint [3]: 38.8 μL/min/mg proteins
- Instrinsic clearance of liver microsomal protein, CLint [4]: 1 μL/min/mg proteins
- Instrinsic clearance of liver microsomal protein, CLint [5]: 6.6 μL/min/mg proteins
SMILES: COc1cc(N2CCC(N3CCN(C)CC3)CC2)c(-c2cnn(C)c2)cc1Nc1ncc(Cl)c(Nc2ccc3nccnc3c2P(C)(C)=O)n1 [Compound 1, (6-((5-Chloro-2-((2-methoxy-5-(1-methyl-1hydro-pyrazol-4-yl)-4-(4-(4-methylpiperazine-1-yl)piperidin-1-yl)phenyl)amino)pyrimidin-4-yl)amino)quinoxalin-5-yl)dimethylphosphine oxide]
- IC50 (hERG protein): > 30000 nM
